The compounds below were run against T1, human CRHR2-alpha (Homo sapiens, UniProt Q13324) (assay: cAMP functional assay for human CRHR2 (LANCE Ultra cAMP, TR-FRET)). Conditions: CHO-K1 cells expressing human CRHR2-alpha, agonist human urocortin2 at EC80, cAMP; read-out: IC50 against CRHR2.
T1 sequence (Q13324 1-411): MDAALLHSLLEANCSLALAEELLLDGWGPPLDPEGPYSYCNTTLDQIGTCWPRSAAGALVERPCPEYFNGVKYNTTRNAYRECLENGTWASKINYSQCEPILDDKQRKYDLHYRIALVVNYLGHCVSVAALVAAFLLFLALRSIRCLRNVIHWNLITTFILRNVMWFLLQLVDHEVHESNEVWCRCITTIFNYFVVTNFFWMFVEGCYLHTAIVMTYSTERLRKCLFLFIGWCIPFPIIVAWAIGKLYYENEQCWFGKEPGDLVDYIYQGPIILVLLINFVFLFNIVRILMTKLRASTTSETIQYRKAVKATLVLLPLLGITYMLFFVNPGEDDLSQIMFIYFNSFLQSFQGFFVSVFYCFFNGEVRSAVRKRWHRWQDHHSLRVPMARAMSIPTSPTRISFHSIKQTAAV
Format: cell-based
Outline: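 IC50 values derive from percent inhibition of EC80 agonist-stimulated cAMP in CHO-K1 transfectants, with 0.5 mM IBMX present; the CRHR2 line was stimulated by human urocortin2 and the CRHR1 line by CRF.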

IC50, < 0.3 µM:
CNc1cnc(-n2c(=O)n(C[C@H]3CC[C@H](NC(=O)c4cc(Cl)cnc4C)CC3)c3ccccc32)cn1 [Example 115, 5-chloro-2-methyl-N-((1r,4r)-4-((3-(5-(methylamino)pyrazin-2-yl)-2-oxo-2,3-dihydro-1H-benzo [d]imidazol-1-yl)methyl)cyclo-hexyl)nicotinamide]
Cc1cc(-n2c(=O)n(C[C@H]3CC[C@H](NC(=O)c4cc(Cl)cnc4C)CC3)c3ccccc32)c(C)cn1 [Example 336, 5-chloro-N-((1r,4r)-4-((3-(2,5-dimethylpyridin-4-yl)-2-oxo-2,3-dihydro-1H-benzo[d]imidazol-1-yl)methyl)cyclohexyl)-2-methylnicotinamide]
CN(C)c1cc(-n2c(=O)n(C[C@H]3CC[C@H](NC(=O)c4cc(Cl)cnc4C(F)(F)F)CC3)c3ccccc32)ccn1 [Example 663, 5-chloro-N-((1r,4r)-4-((3-(2-(dimethylamino)pyridin-4-yl)-2-oxo-2,3-dihydro-1H-benzo[d]imidazol-1-yl)methyl)cyclohexyl)-2-(trifluoromethyl)nicotinamide]
Cc1csc(CNC(=O)c2ccc(-n3c(=O)n(C[C@H]4CC[C@H](NC(=O)c5cc(Cl)cnc5C)CC4)c4ccccc43)cn2)n1 [Example 180, 5-(3-(((1r,4r)-4-(5-chloro-2-methylnicotinamido)cyclo-hexyl)methyl)-2-oxo-2,3-dihydro-1H-benzo[d]imidazol-1-yl)-N-((4-methylthiazol-2-yl)methyl)picolinamide]
Cc1ncc(Cl)cc1C(=O)N[C@H]1CC[C@H](Cn2c(=O)n(-c3ccc(Br)cc3C#N)c3ccccc32)CC1 [Example 204, N-((1r,4r)-4-((3-(4-bromo-2-cyanophenyl)-2-oxo-2,3-dihydro-1H-benzo[d]imidazol-1-yl)methyl)cyclo-hexyl)-5-chloro-2-methylnicotinamide]
C[C@@H](O)COc1ccc(-n2c(=O)n(C[C@H]3CC[C@H](NC(=O)c4cc(Cl)cnc4C(F)F)CC3)c3ccccc32)cn1 [Example 439, 5-chloro-2-(difluoromethyl)-N-((1R,4r)-4-((3-(6-((R)-2-hydroxypropoxy)pyridin-3-yl)-2-oxo-2,3-dihydro-1H-benzo[d]imidazol-1-yl)methyl)cyclohexyl)nicotinamide]
O=C(N[C@H]1CC[C@H](Cn2c(=O)n(-c3cccc(-c4nnco4)c3)c3ccccc32)CC1)c1cc(Cl)cnc1C(F)F [Example 748, N-((1r,4r)-4-((3-(3-(1,3,4-oxadiazol-2-yl)phenyl)-2-oxo-2,3-dihydro-1H-benzo [d]imidazol-1-yl)methyl)cyclohexyl)-5-chloro-2-(difluoromethyl)nicotinamide]
Cc1ncc(Cl)cc1C(=O)N[C@H]1CC[C@H](Cn2c(=O)n(-c3ccc(-c4ccn(C)n4)cc3)c3ccccc32)CC1 [Example 447, 5-chloro-2-methyl-N-((1r,4r)-4-((3-(4-(1-methyl-1H-pyrazol-3-yl)phenyl)-2-oxo-2,3-dihydro-1H-benzo[d]imidazol-1-yl)methyl)cyclo-hexyl)nicotinamide]
Cc1ccc(-n2c(=O)n(C[C@H]3CC[C@H](NC(=O)c4cc(Cl)cnc4C(F)(F)F)CC3)c3ccccc32)c(C)n1 [Example 315, 5-chloro-N-((1r,4r)-4-((3-(2,6-dimethylpyridin-3-yl)-2-oxo-2,3-dihydro-1H-benzo [d]imidazol-1-yl)methyl)cyclohexyl)-2-(trifluoro-methyl)nicotinamide]
CNc1cncc(-n2c(=O)n(C[C@H]3CC[C@H](NC(=O)c4cc(Cl)cnc4C)CC3)c3ccccc32)c1 [Example 487, 5-chloro-2-methyl-N-((1r,4r)-4-((3-(5-(methylamino)pyridin-3-yl)-2-oxo-2,3-dihydro-1H-benzo[d]imidazol-1-yl)methyl)cyclohexyl)nicotinamide]
COc1ccc(C(=O)Cn2c(=O)n(C[C@H]3CC[C@H](NC(=O)c4cc(Cl)cnc4C)CC3)c3ccccc32)cc1 [Example 9, 5-chloro-N-((1r,4r)-4-((3-(2-(4-methoxyphenyl)-2-oxoethyl)-2-oxo-2,3-dihydro-1H-benzo[d]imidazol-1-yl)methy)cyclohexyl)-2-methylnicotinamide]
Cc1ccc(-n2c(=O)n(C[C@H]3CC[C@H](NC(=O)c4cc(Cl)ccc4C4CC4)CC3)c3ccccc32)cn1 [Example 266, 5-chloro-2-cyclopropyl-N-((1r,4r)-4-((3-(6-methyl-pyridin-3-yl)-2-oxo-2,3-dihydro-1H-benzo[d]imidazol-1-yl)methyl)cyclo-hexyl)benzamide]
CNC(=O)c1ccc(-n2c(=O)n(C[C@H]3CC[C@H](NC(=O)c4cc(Cl)cnc4C(F)F)CC3)c3ccccc32)cn1 [Example 325, 5-(3-(((1r,4r)-4-(5-chloro-2-(difluoromethyl)nicotina-mido)cyclohexyl)methyl)-2-oxo-2,3-dihydro-1H-benzo [d]imidazol-1-yl)-N-methylpicolinamide]
COc1cc(-n2c(=O)n(C[C@H]3CC[C@H](NC(=O)c4cc(Cl)cnc4C(F)F)CC3)c3cccnc32)ccc1F [Example 399, 5-chloro-2-(difluoromethyl)-N-((1r,4r)-4-((3-(4-fluoro-3-methoxyphenyl)-2-oxo-2,3-dihydro-1H-imidazo[4,5-b]pyridin-1-yl)methyl)cyclo-hexyl)nicotinamide]
Cc1ncc(Cl)cc1C(=O)N[C@H]1CC[C@H](Cn2c(=O)n(-c3cccc4c3CCC4)c3ccncc32)CC1 [Example 238, 5-chloro-N-((1r,4r)-4-((1-(2,3-dihydro-1H-inden-4-yl)-2-oxo-1H-imidazo[4,5-c]pyridin-3(2H)-yl)methyl)cyclohexyl)-2-methylnicotinamide]
O=C(N[C@H]1CC[C@H](Cn2c(=O)n(-c3ccc4ncncc4c3)c3ccccc32)CC1)c1cc(Cl)cnc1C(F)F [Example 394, 5-chloro-2-(difluoromethyl)-N-((1r,4r)-4-((2-oxo-3-(quinazolin-6-yl)-2,3-dihydro-1H-benzo[d]imidazol-1-yl)methyl)cyclohexyl)nicotinamide]
O=C(N[C@H]1CC[C@H](Cn2c(=O)n(-c3cc(F)ccc3Cl)c3cnccc32)CC1)c1cc(Cl)cnc1C(F)F [Example 718, 5-chloro-N-((1r,4r)-4-((3-(2-chloro-5-fluorophenyl)-2-oxo-2,3-dihydro-1H-imidazo[4,5-c]pyridin-1-yl)methyl)cyclo-hexyl)-2-(difluoromethyl) nicotinamide]
O=C(N[C@H]1CC[C@H](Cn2c(=O)n(-c3ccn4cncc4c3)c3ccccc32)CC1)c1cc(Cl)cnc1C(F)(F)F [Example 342, 5-chloro-N-((1r,4r)-4-((3-(imidazo[1,5-a]pyridin-7-yl)-2-oxo-2,3-dihydro-1H-benzo[d]imidazol-1-yl)methyl)cyclohexyl)-2-(tri-fluoromethyl)nicotinamide]
Cc1ncc(Cl)cc1C(=O)N[C@H]1CC[C@H](Cn2c(=O)n(-c3ccc(NCc4cnn(C)c4)nc3)c3ccccc32)CC1 [Example 441, 5-chloro-2-methyl-N-((1r,4r)-4-((3-(6-(((1-methyl-1H-pyrazol-4-yl)methyl)amino)pyridin-3-yl)-2-oxo-2,3-dihydro-1H-benzo[d]imidazol-1-yl)methyl)cyclohexyl)nicotinamide]
O=C(N[C@H]1CC[C@H](Cn2c(=O)n(-c3ccc(N[C@H]4CCOC4)nc3)c3ccccc32)CC1)c1cc(Cl)cnc1C(F)(F)F [Example 299, 5-chloro-N-((1S,4r)-4-((2-oxo-3-(6-(((S)-tetrahydro-furan-3-yl)amino)pyridin-3-yl)-2,3-dihydro-1H-benzo [d]imidazol-1-yl)methyl)cyclohexyl)-2-(trifluoro-methyl)nicotinamide]
Cc1ncc(Cl)cc1C(=O)N[C@H]1CC[C@H](Cn2c(=O)n(-c3ccccc3Cl)c3cccnc32)CC1 [Example 256, 5-chloro-N-((1r,4r)-4-((1-(2-chlorophenyl)-2-oxo-1H-imidazo[4,5-b]pyridin-3(2H)-yl)methyl)cyclohexyl)-2-methylnicotinamide]
CN(C)c1cccc(-n2c(=O)n(C[C@H]3CC[C@H](NC(=O)c4cc(Cl)cnc4C(F)F)CC3)c3ccccc32)n1 [Example 659, 5-chloro-2-(difluoromethyl)-N-((1r,4r)-4-((3-(6-(dimethyl-amino)pyridin-2-yl)-2-oxo-2,3-dihydro-1H-benzo[d]imidazol-1-yl)methyl)cyclo-hexyl)nicotinamide]
COC1CN(c2ccc(-n3c(=O)n(C[C@H]4CC[C@H](NC(=O)c5cc(Cl)cnc5C)CC4)c4ccccc43)cn2)C1 [Example 144, 5-chloro-N-((1r,4r)-4-((3-(6-(3-methoxyazetidin-1-yl)pyridin-3-yl)-2-oxo-2,3-dihydro-1H-benzo[d]imidazol-1-yl)methyl)cyclohexyl)-2-methylnicotinamide]

Source: patent US11802120B2, “Fused cyclic urea derivatives as CRHR2 antagonist” (RaQualia Pharma Inc., priority 2018, dated 2023)
